# Legend:
# Escherichia coli = assay: Effect on the intestinal bacterial colonies: E. coli count in mouse feces; format: in vivo
# Procedure: (§1) Each of the cephalosporin derivatives of the invention prepared in Examples 1 to 4 was orally administered to mice (one group consisting of five female ICR mice of 6-week-old) for two consecutive days at a dose of 500 mg/kg/day.
# (§2) Before and one day after the administration, feces of each mouse was collected and diluted with an anaerobic diluent (phosphoric buffer solution) of 100 times by volume and the diluted feces was ground. 0.1 ml of the diluted and ground feces was smeared on each culture medium shown in Table 1 and cultured aerobically or anaerobically (according to the anaerobic glove box method) under each condition shown in Table 1 and the number of each bacterium shown in Table 1 was counted.
# DHL agar aerobic, 37° C.,
# Pseudomonas aeruginosa = assay: Effect on the intestinal bacterial colonies: Ps. aeruginosa count in mouse feces; format: in vivo
# Procedure: as §1, §2
# NAC agar aerobic, 37° C.,
# Streptococcus spp. = assay: Effect on the intestinal bacterial colonies: Streptococcus spp. count in mouse feces; format: in vivo
# Procedure: as §1, §2
# TATAC agar aerobic, 37° C.,
# [1] = tested on: Lactobacillus acidophilus; assay: Effect on the intestinal bacterial colonies: L. acidophilus count in mouse feces; format: in vivo
# Procedure: as §1, §2
# Lactobacillus acidophilus
# LBS agar anaerobic, 37° C.,
# Lactobacillus bifidus = assay: Effect on the intestinal bacterial colonies: L. bifidus count in mouse feces; format: in vivo
# Procedure: as §1, §2
# BS agar anaerobic, 37° C.,
# Bacteroides = assay: Effect on the intestinal bacterial colonies: Bacteroides count in mouse feces; format: in vivo
# Procedure: as §1, §2
# Bacteroides NBGT agar anaerobic, 37° C.,
# [2] = tested on: Escherichia coli IFO 12734; assay: Antibacterial activity (MIC), agar plate, E. coli; format: cell-based; set-up: unit not given beside the values; details: Mueller-Hinton agar, 37° C., 18 to 24 hours; unit not given
# Procedure: (§3) Antibacterial activity of each of the cephalosporin derivatives of the invention prepared in Examples 1 to 4 was examined against the following two bacteria according to the standard method of Japan Society of Chemitherapy: Escherichia coli IFO 12734 and Staphylococcus aureus IAM 1011.
# (§4) Each bacterial strain was inoculated into the Mueller-Hinton's culture medium and cultured at 37° C. for 18 to 48 hours. The cultured medium was diluted so as to contain 1×10^6 cells of the bacteria per one ml, and the obtained medium was used as the bacterial specimen.
# (§5) Agar plates were prepared by adding one part by weight of each solution of the cephalosporin derivative of the invention at a predetermined concentration to nine parts by weight of Mueller-Hinton's culture medium.
# (§6) A loopful amount of the bacterial specimen prepared above was smeared to make a streak of about 2 cm on each agar plate prepared above and cultured at 37° C. for 18 to 24 hours.
# (§7) The minimum concentration for completely inhibiting proliferation of the bacteria (referred to as MIC) was determined.
# [3] = tested on: Staphylococcus aureus IAM 1011; assay: Antibacterial activity (MIC), agar plate, Staph. aureus; format: cell-based; set-up: unit not given beside the values; details: Mueller-Hinton agar, 37° C., 18 to 24 hours; unit not given
# Procedure: as §3, §4, §5, §6, §7
# [4] = tested on: Staphylococcus aureus IAM 1011; assay: Activation by rat liver homogenate (S-9 mix), proliferation-inhibiting circle, penicillin cup; format: cell-based; details: 37° C., 20 min, ratio of circle diameter to that of the starting compound; for Proliferation-inhibiting index, before adding S-9 mix (control): phosphoric buffer instead of S-9 mix; for Proliferation-inhibiting index, after adding S-9 mix: rat liver S-9 mix; as to all read-outs here: ranges in brackets are in %
# Procedure: As an activating enzyme of metabolism, a rat liver homogenate (S-9, manufactured by Oriental Yeast Company, Japan) was used in the following composition per 1 ml (hereinafter referred to as S-9 mix). |S-9 0.5 ml |KCl 3.3 μmol |MgCl2.6H2 O 8 μmol |Glucose 6-phosphate 5 μmol |NADH 4 μmol |NADPH 4 μmol |0.2 M phosphoric buffer solution | 0.5 ml |(pH of 7.4) 0.1 ml of the solution of each of the cephalosporin derivatives of the invention prepared in Examples 1 to 4 at a concentration of 100 μg/ml was mixed with 0.9 ml of S-9 mix or 0.9 ml of 0.1 M phosphoric buffer solution (as a control) and the obtained mixture was incubated at 37° C. for 20 min with shaking. Staphylococcus aureus IAM 1011 was inoculated into a Mueller-Hinton's culture medium and cultured at 37° C. for 18 hours. The culture medium was adjusted to a cell concentration of 1×10^8 per 1 ml and mixed with 50 times by volume of Mueller-Hinton's agar culture medium to obtain an agar plate. A penicillin cup of 8 mm in diameter was placed on the agar plate prepared above, and into the cup 0.1 ml of the mixture containing the cephalosporin derivative prepared above was introduced and allowed to stand at 4° C. for 2 hours, and then cultured at 37° C. for 18 hours to measure the diameter of a circle in which the proliferation of bacteria was inhibited (proliferation-inhibiting circle). In Table 4, the proliferation-inhibiting index is shown in the ratio (%) of the diameter of the proliferation-inhibiting circle obtained by using each of the cephalosporin derivatives of the invention to that obtained by using each of the starting compound in preparing each of the cephalosporin derivatives of the invention.
# [5] = female ICR mice, oral 500 mg/kg/day for two days, one day after administration, before administration 6.4
Compound,Logarithmic value of the number of bacterial cells per one g of feces: E. coli (Escherichia coli; [5]),"Logarithmic value of the number of bacterial cells per one g of feces: Ps. aeruginosa (Pseudomonas aeruginosa; in vivo, po, 500 mg/kg/day)","Logarithmic value of the number of bacterial cells per one g of feces: Strept. spp. (Streptococcus spp.; in vivo, po, 500 mg/kg/day)","Logarithmic value of the number of bacterial cells per one g of feces: L. acidophilus ([1]; in vivo, po, 500 mg/kg/day)","Logarithmic value of the number of bacterial cells per one g of feces: L. bifidus (Lactobacillus bifidus; in vivo, po, 500 mg/kg/day)","Logarithmic value of the number of bacterial cells per one g of feces: Bacteroides (Bacteroides; in vivo, po, 500 mg/kg/day)","MIC, E. coli [2]","MIC, Staph. aureus [3]","Proliferation-inhibiting index, before adding S-9 mix (control) [4]","Proliferation-inhibiting index, after adding S-9 mix [4]",change of the number of Escherichia coli compared to before administration (Escherichia coli; in vivo),"Logarithmic value of the number of bacterial cells per one g of feces: E. coli (Escherichia coli; in vivo, po, 500 mg/kg/day)","Logarithmic value of the number of bacterial cells per one g of feces: Ps. aeruginosa (Pseudomonas aeruginosa; female ICR mice, oral 500 mg/kg/day for two days, one day after administration, before administration <3.0)","Logarithmic value of the number of bacterial cells per one g of feces: Strept. spp. (Streptococcus spp.; female ICR mice, oral 500 mg/kg/day for two days, one day after administration, before administration 6.8)","Logarithmic value of the number of bacterial cells per one g of feces: L. acidophilus ([1]; female ICR mice, oral 500 mg/kg/day for two days, one day after administration, before administration 9.0)","change of Lactobacillus acidophilus ([1]; mouse feces, result in words)","Logarithmic value of the number of bacterial cells per one g of feces: L. bifidus (Lactobacillus bifidus; female ICR mice, oral 500 mg/kg/day for two days, one day after administration, before administration 8.4)","Logarithmic value of the number of bacterial cells per one g of feces: Bacteroides (Bacteroides; female ICR mice, oral 500 mg/kg/day for two days, one day after administration, before administration 8.3)"
"COC(=O)CCC(NC(=O)C1=C(COC(C)=O)CSC2C(NC(=O)Cc3cccs3)C(=O)N12)C(=O)OC (stereo not drawn) [Example 4, N-[1,3-bis(carbomethoxy)propyl]-7-(thienyl-2-acetamido)cephalosporanic acid amide]",6.0 Logarithmic value of the numbe,< 3.9 Logarithmic value of the numbe,7.0 Logarithmic value of the numbe,9.4 Logarithmic value of the numbe,8.9 Logarithmic value of the numbe,8.3 Logarithmic value of the numbe,≥ 100,12.5,+ (1-33),++ (33-66),,,,,,,,
"COC(=O)C[C@H](NC(=O)C1=C(COC(C)=O)CSC2C(NC(=O)Cc3cccs3)C(=O)N12)C(=O)OC (stereo partly drawn) [Example 1, N-[1,2-bis(carbomethoxy)ethyl]-7-(thienyl-2-acetamido)cephalosporanic acid amide]",6.3 Logarithmic value of the numbe,< 3.3 Logarithmic value of the numbe,7.0 Logarithmic value of the numbe,9.0 Logarithmic value of the numbe,8.6 Logarithmic value of the numbe,8.5 Logarithmic value of the numbe,≥ 100,≥ 12.5,- (0),± (0-1),,,,,,,,
"COC(=O)[C@H](CCSC)NC(=O)C1=C(COC(C)=O)CSC2C(NC(=O)Cc3cccs3)C(=O)N12 (stereo partly drawn) [Example 2, N-(1-carbomethoxy-3-thiomethylpropyl)-7-(thienyl-2-acetamido)cephalosporanic acid amide]",6.4 Logarithmic value of the numbe,< 3.0 Logarithmic value of the numbe,6.6 Logarithmic value of the numbe,8.9 Logarithmic value of the numbe,8.3 Logarithmic value of the numbe,8.8 Logarithmic value of the numbe,≥ 100,≥ 12.5,- (0),± (0-1),,,,,,,,
"CC(=O)OCC1=C(C(=O)O)N2C(=O)[C@@H](NC(=O)Cc3cccs3)[C@H]2SC1 [Cephalotin, reference compound]",,,,,,,,,,,increased,9.9 Logarithmic value of the numbe,< 3.0 Logarithmic value of the numbe,9.0 Logarithmic value of the numbe,4.1 Logarithmic value of the numbe,decreased,9.2 Logarithmic value of the numbe,7.2 Logarithmic value of the numbe
"CCOC(=O)C(Cc1ccc(O)cc1)NC(=O)C1=C(COC(C)=O)CSC2C(NC(=O)Cc3cccs3)C(=O)N12 (stereo not drawn) [Example 3, N-[1-carboethoxy-2-(4-hydroxyphenyl)ethyl]-7-(thienyl-2-acetamido)cephalosporanic acid amide]",6.5 Logarithmic value of the numbe,< 3.0 Logarithmic value of the numbe,6.3 Logarithmic value of the numbe,8.9 Logarithmic value of the numbe,8.2 Logarithmic value of the numbe,8.7 Logarithmic value of the numbe,≥ 100,≥ 12.5,- (0),± (0-1),,,,,,,,
